In patent US20170095440A1, “METHOD OF TREATING CANINE PANCREATITIS” (CK9, LLC, priority 2014, published 2017):
“Also recorded” adds a separate entry of the source.

How the values were obtained:
Beagle dogs [1] = experiment: Rising-dose tolerance study, oral capsule; assay type: in vivo, dog
Procedure: The following parameters and end points were evaluated in the rising-dose phase of this study: clinical signs, body weights, body weight changes, food consumption, electrocardiography, clinical pathology parameters (hematology, clinical chemistry, and urinalysis), and gross necropsy findings.
(§1) 3 male and 3 female Beagle dogs were received from Marshall BioResources, North Rose, N.Y. The animals were examined and weighed on the day following receipt. The rising-dose phase animals were 6 months old and weighed 7.5 kg and 8.3 kg at initiation of dosing. The multiple-dose phase animals were 7 months old and weighed 7.4 kg and 7.6 kg at initiation of dosing.
For the rising-dose phase, the test article was administered to the appropriate animals by oral capsule. At least a 3-day washout period was maintained before proceeding to the next dose level; therefore, dosing occurred on Days 1, 5, 9, 15, and 19. The dose amount for each animal was based on the most recent body weight measurement. The first day of dosing was designated as Study Day 1.
The animals were removed from the cage and a detailed clinical observation was performed daily, beginning during Week −1, 1 to 3 hours postdose on days of dosing. Each animal was weighed on the day of randomization and Days 1, 5, 9, 15, 19, and 22. Food consumption was quantitatively measured for each animal daily, starting Week −1, throughout the dosing period, except for on the day of scheduled euthanasia. Electrocardiogram (ECG) measurements were obtained from all animals using leads I, II, III, aVR, aVL, and aVF and a chart speed of 50 mm/second. The ECG measurements were obtained once pretreatment and at approximately 3 hours postdose on Days 1, 5, 9, 15, and 19. Only lead II was evaluated by a board-certified veterinary cardiologist.
(§2) Blood was collected by venipuncture of the jugular vein. Urine was collected overnight by cage pan drainage. After collection, samples were transferred to the clinical pathology laboratory for processing. The animals were fasted overnight prior to scheduled clinical pathology sample collections, but had access to water ad libitum. Samples were collected according to Table 5.
(§3) Rising-dose phase animals surviving until scheduled euthanasia were weighed, samples for evaluation of clinical pathology parameters were collected as specified above, and the animals were euthanized by sodium pentobarbital injection, followed by exsanguination. Animals were fasted overnight before their scheduled necropsy.
(§4) Rising-dose phase animals were subjected to a complete necropsy examination, which included evaluation of the carcass and musculoskeletal system; all external surfaces and orifices; cranial cavity and external surfaces of the brain; and thoracic, abdominal, and pelvic cavities with their associated organs and tissues. Necropsy examinations were conducted under the supervision of a board-certified veterinary pathologist.

Beagle dogs [2] = experiment: Multiple-dose tolerance study, oral capsule 3 times a day for 14 days; assay type: in vivo, dog
Procedure: The following parameters and end points were evaluated in the multiple-dose phase of this study: clinical signs, body weights, body weight changes, food consumption, electrocardiography, clinical pathology parameters (hematology, clinical chemistry, and urinalysis), and gross necropsy findings.
as §1
For the multiple-dose phase, the test article was administered to the appropriate animals 3 times a day in an oral capsule from Days 1 to 14. The doses were administered 8 hours±30 minutes apart. The dose amount for each animal was based on the most recent body weight measurement. The first day of dosing was designated as Day 1.
Cage side observations were performed once daily, beginning during Week −1 and throughout the dosing period. During the dosing period, these observations were performed 1 to 3 hours post the first daily dose. The animals were removed from the cage and a detailed clinical observation was performed weekly, beginning during Week −1. Each animal was weighed on the day of randomization and Days 1, 4, 8, 11, and 15. A fasted weight was recorded on the day of necropsy. Food consumption was quantitatively measured for each animal daily, starting Week −1, throughout the dosing period, except for on the day of scheduled euthanasia.
Electrocardiogram (ECG) measurements were obtained from all animals using leads I, II, III, aVR, aVL, and aVF and a chart speed of 50 mm/second. The ECG measurements were obtained once on Day −1 (pretreatment) and Day 14 (approximately 3 hours post the first daily dose). Only lead II was evaluated by a board-certified veterinary cardiologist.
as §2, with “10.” for “5.”
as §3, with “Multiple-dose” for “Rising-dose”, “(overnight)” for “overnight”
as §4, with “Multiple-dose” for “Rising-dose”

[3] = following each dose, 10-250 mg/kg, methanesulfonate
[4] = Day 15 vs pretest, 200 mg/kg/day, methanesulfonate, 200 mg/kg/day

SMILES: CN(C)C(=O)COC(=O)Cc1ccc(OC(=O)c2ccc(NC(=N)N)cc2)cc1 [Camostat Mesilate, N,N-dimethylcarbamoylmethyl-4-(4-guanidinobenzoyloxy)phenylacetate methanesulfonate]
- Clinical observations (Beagle dogs [1]; 10 mg/kg single oral dose): soft feces were noted in the female the day after dosing
- Clinical observations (Beagle dogs [1]; 30 mg/kg single oral dose): no clinical observations noted
- Clinical observations (Beagle dogs [1]; 100 mg/kg single oral dose): clear ocular discharge was observed in the female
- Clinical observations (Beagle dogs [1]; 200 mg/kg single oral dose, methanesulfonate): slight salivation and soft feces/feces with mucoid material were observed in the male and female
- Clinical observations (Beagle dogs [1]; 250 mg/kg single oral dose, methanesulfonate): severe salivation was observed following dosing in the male and female; also recorded: salivation and soft feces/feces with mucoid material
- Gross necropsy findings (Beagle dogs [1]; Day 22): no gross necropsy findings
- Body weight (Beagle dogs [1]; between doses, 10-250 mg/kg): no notable changes
- Food consumption (Beagle dogs [1]; between doses, 10-250 mg/kg): no notable changes
- Clinical chemistry, potential test article-related changes (Beagle dogs [1]; female, following the 200 and 250 mg/kg doses): increased creatine kinase
- Hematology parameters (Beagle dogs [1]; [3]): no toxicologically meaningful changes; also recorded: no notable changes
- Urinalysis parameters (Beagle dogs [1]; [3]): no toxicologically meaningful changes; also recorded: no notable changes
- Clinical chemistry, potential test article-related changes (Beagle dogs [1]; male, following the 250 mg/kg dose): increased creatinine, total bilirubin, and urea nitrogen
- Survival (Beagle dogs [1]; single oral doses 10, 30, 100, 200, 250 mg/kg, 1 male and 1 female, methanesulfonate): No rising-dose phase animals died; also recorded: All animals survived to scheduled euthanasia
- Survival (Beagle dogs [2]; 200 mg/kg/day (66.7 mg/kg/dose 3 times a day), 14 days, 1 male and 1 female, methanesulfonate): No animals died; also recorded: All animals survived to scheduled euthanasia
- Body weight, overall conclusion (Beagle dogs [2]; 200 mg/kg/day, 14 days): body weight loss
- Food consumption (Beagle dogs [2]; 200 mg/kg/day, 14 days): no notable changes
- Gross necropsy findings (Beagle dogs [2]; Day 15, 200 mg/kg/day): no gross necropsy findings
- Hematology parameters (Beagle dogs [2]; [4]): no toxicologically meaningful changes; also recorded: no notable changes
- Urinalysis parameters (Beagle dogs [2]; [4]): no toxicologically meaningful changes; also recorded: no notable changes
- High-dose level chosen from the tolerance study (Beagle dogs [2]; dogs, oral, 3 times per day): 200 mg/kg/day
- Body weight change Days 1 to 15 (Beagle dogs [2]; female, 200 mg/kg/day, 14 days): −2.7%
- Clinical observations (Beagle dogs [2]; female, 200 mg/kg/day, 14 days): clear ocular discharge and single occurrences of vomitus and mucoid feces
- Clinical chemistry, potential test article-related changes (Beagle dogs [2]; male and female, Day 15, 200 mg/kg/day, methanesulfonate, 200 mg/kg/day): increased creatinine and γ-glutamyl transferase; also recorded: increases in creatinine and γ-glutamyl transferase
- Body weight change Days 1 to 15 (Beagle dogs [2]; male, 200 mg/kg/day, 14 days): −9.2%
- Clinical observations (Beagle dogs [2]; male, 200 mg/kg/day, 14 days): thin appearance and a single occurrence of vomitus
